{"source": "patent US11001795B2", "about": "“In vitro gastrointestinal model comprising lamina propria-derived cells” (EMULATE, Inc., priority 2016, dated 2021)", "key": {"[1]": {"tested_on": "Ulcerative Colitis patients", "settings": "cited from earlier work"}, "[2]": {"tested_on": "Caco-2/HUVEC/LPDC microfluidic co-cultures", "experiment": "Cytokine and chemokine production in microfluidic co-cultures with LP derived cells", "format": "cell-based, human", "experimental": "An exemplary bacteria antigen used was PAM2CSK4. […] PAM2CSK4 refers to a synthetic diacylated lipopeptide.\nIn order to determine contributory factors to the trends in permeability changes observed by combinations of prednisone treatments as in Example 5, cytokine and chemokine production were measured from media samples obtained from the microfluidic cultures as described in Example 5. After an incubation time, media samples were extracted from the microfluidic device then used for determining amounts of cytokine and chemokine produced, such as IL-6 and IL-9 in FIG. 18A-B; IL-8 and G-CSF in FIG. 19A-B; GM-CSF and MCP-1 in FIG. 20A-B: MIP1b and PDGF-AB/BB in FIG. 21A-B; and RANTES in FIG. 22. Amounts of cytokine and chemokine protein are measure in pg/ml (picogram per milliliter)."}, "[3]": {"tested_on": "UC patient's resident immune cells", "experiment": "24 hour bacterial challenge of resident immune cells cultured on-plates, secreted cytokines", "format": "cell-based, human", "settings": "immune cells from inflamed UC tissue, 24 hour challenge"}, "[4]": {"tested_on": "Intestine On-Chip with TH1 or TH9 cells", "experiment": "Cytokine production in Intestine On-Chip seeded with plate-differentiated TH1 or TH9 cells", "format": "cell-based, human", "settings": "for IL-10: TH9 populations; for IL-6 protein: untreated vs PAM2CSK4 treated with and without Tofacitinib", "description": "In this example, a TH1 cell population was produced from a population of mature/naive CD4+ T cells, as described in Example 7. This population of CD4+ T cells were co-stimulated with adhered CD3 and soluble CD28 antibodies, without added cytokines, for inducing differentiation of TH1 cells on plates. Unlike co-stimulation with adhered CD3 and soluble CD28 antibodies in the presence of TGFB, IL-4, and IFNg cytokines which induced differentiation of TH9 cells, as described herein. Thus, in this example, purified CD4+ T cell populations were plated into tissue culture plates for activation and differentiation into one selected T cell subtype, e.g. TH1 in one plate, and TH9 in another plate.\nIn order to further test whether PBMCs activated and differentiated with soluble factors were capable of inducing inflammation on chips, pro-inflammatory cytokine production was compared between untreated, PAM2CSK4 treated with and without Tofacitinib.\nExperiments were designed to evaluate whether anti-CD3 and anti-CD28 co-stimulatory activation (soluble reagents) on chip would stimulate on chip T cells (previously activated and differentiated on plates) to continue functioning as activated effector cells within the chip tissue microenvironment. Further, TH1 and TH9 T cell populations underwent testing for an exacerbated response (either tissue alterations or changes in the characteristics of the T cell population) to a specific antigen stimulation, e.g. PAM2CSK4 (TLR2) bacterial agonist, with or without additional co-stimulation (i.e. using soluble reagents). Stimulation on-chip was done as a treatment on Day 7 of culture.\nEvaluation of the effects of T-cell activation on the Intestine On-Chip by perfusion of soluble immune activating factors (anti-CD3 and anti-CD28) to the media is shown in FIGS. 36A-B-39A-C. In particular, activated T-cell subsets were evaluated for disease-specific cytokine production.\nT cell subsets were purified from PBMCs as described herein, then stimulated in tissue culture plates using plate bound CD3 and soluble CD28 antibodies."}, "[5]": {"tested_on": "TH1 and TH9 CD4+ T cell populations", "experiment": "Bacterial antigen stimulation of TH1 and TH9 populations on cell culture plates", "format": "cell-based, human", "experimental": "Purified human CD4+ cells in tissue culture media, comprising soluble anti-human CD28 mAb (e.g. PharMingen, San Diego, Calif.), were added to CD3 coated plastic tissue culture plates for non-antigen-specific activation. Co-stimulation of the CD3 transmembrane signaling complex and the T cell CD28 molecule results in nonantigen specific stimulation of the TCR (CD3). After three days of incubation, the default T cell population is considered a TH1 population. After three days of co-stimulation, with or without added cytokines, cells are pipetted out of the plates, the plates are washed with media or PBS to remove any remaining cells, then harvested cells are washed at least 3 times to remove cell fragments and culture reagents, prior to use of the activated T cell population for seeding microfluidic chips on Day 0 of the chip timeline.\nIn this example, a TH1 cell population was produced from a population of CD4+ T cells obtained from a sample of PBMCs. This population of CD4+ T cells were co-stimulated with soluble CD3 and CD28 antibodies without added cytokine stimulation for inducing differentiation of TH1 cells. Unlike the co-stimulation with soluble CD3 and CD28 antibodies in the presence of TGFB, IL-4, and IFNg cytokines for inducing differentiation of TH9 cells as described herein.\nA sample of each TH cell type was exposed to PAM2CSK4, then log 2 fold changes in protein expression of either pathway molecules or IL-9 were measured and compared to duplicate samples not treated with PAM2CSK4."}, "[6]": {"tested_on": "Caco-2 epithelial cell layer", "format": "cell-based, human", "description": "See an exemplary permeability assay method in Example 4.\nEffects of resident leukocytes isolated from LP"}, "[7]": {"settings": "prednisone alone, non-inflamed LPDC"}, "[8]": {"settings": "prednisone, inflamed LPDCs, with and without PAM2CSK4"}, "[9]": {"settings": "prednisone, non-inflamed and inflamed LPDCs treated with PAM2CSK4"}}, "note": "Entries after “also recorded” stand apart in the source; their conditions may differ."}
{"compound": "C[C@]12C=CC(=O)C=C1CC[C@@H]1[C@@H]2C(=O)C[C@@]2(C)[C@H]1CC[C@]2(O)C(=O)CO", "note": "[prednisone]", "values": [{"measurement": "Treated patients non-responsive", "setting": "[1]; Ulcerative Colitis patients", "value": "around 16%"}, {"measurement": "Treated patients with full remission", "setting": "[1]; Ulcerative Colitis patients", "value": 54, "unit": "%"}, {"measurement": "Treated patients with partial remission", "setting": "[1]; Ulcerative Colitis patients", "value": 30, "unit": "%"}, {"measurement": "Undesirable Side Effects", "setting": "[1]; in vivo", "value": "increased Risk of infection, Weight gain, Hyperglycemia, Hypertension, Bone loss"}, {"measurement": "PDGF-AA/BB production", "setting": "[2]; prednisone alone", "value": "did not appear to be a reduction in PDGF-AA/BB"}, {"measurement": "IL-8 production", "setting": "[2]; prednisone alone or PAM2CSK4, non-inflamed LPDC", "value": "did not appear to be a reduction in IL-8"}, {"measurement": "GM-CSF production", "setting": "[2]; [7]", "value": "did not appear to be a reduction in GM-CSF"}, {"measurement": "MCP-1 production", "setting": "[2]; [7]", "value": "did not appear to be a reduction in MCP-1"}, {"measurement": "GM-CSF production", "setting": "[2]; [8]", "value": "reduced GM-CSF production"}, {"measurement": "IL-8 production", "setting": "[2]; [8]", "value": "trend for reducing IL-8 production"}, {"measurement": "MCP-1 production", "setting": "[2]; [8]", "value": "reduced MCP-1 production"}, {"measurement": "IL-6 production", "setting": "[2]; prednisone, inflamed UC LPDC, endogenous or PAM2CSK4 induced", "value": "reduce IL-6 production"}, {"measurement": "IL-6 production", "setting": "[2]; prednisone, non-inflamed LPDCs", "value": "does not appear to have an effect"}, {"measurement": "PDGF-AA/BB production", "setting": "[2]; prednisone, non-inflamed LPDCs (printed in the MIP-1b section)", "value": "trend for reducing PDGF-AA/BB production"}, {"measurement": "MIP-1b production", "setting": "[2]; prednisone, non-inflamed and inflamed LPDCs (stated in heading only)", "value": "Tends to Reduce MIP-1b Production"}, {"measurement": "PDGF-AA/BB production", "setting": "[2]; [9]", "value": "trend for reducing PDGF-AA/BB production"}, {"measurement": "RANTES production", "setting": "[2]; [9]", "value": "trend for reducing RANTES production"}, {"measurement": "IL-9 production", "setting": "[2]; prednisone, non-inflamed and inflamed UC LPDC, regardless of PAM2CSK4", "value": "production is reduced; also recorded: significantly reduced"}, {"measurement": "G-CSF production", "setting": "[2]; prednisone, non-inflamed or inflamed LPDCs, with and without PAM2CSK4", "value": "trend for reducing G-CSF production"}, {"measurement": "Inflammatory responses (secreted cytokines) to PAM2CSK4 treatment", "setting": "[2]; prophylactic prednisone on-chip, noninflamed and inflamed UC resident immune cells", "value": "suppresses the inflammatory responses"}]}
{"compound": "PAM2CSK4", "values": [{"measurement": "Response (secreted cytokines) to PAM2CSK4", "setting": "[3]", "value": "stronger response"}, {"measurement": "IL-9 production, apical", "setting": "[2]; PAM2CSK4, 1 and 2 LP mil/ml", "value": "increased"}, {"measurement": "IL-9 production, basal", "setting": "[2]; PAM2CSK4, 4 LP mil/ml", "value": "higher level of IL-9 production"}, {"measurement": "IL-9 production", "setting": "[2]; PAM2CSK4, LP leukocyte co-cultures for each source", "value": "induce IL-9"}, {"measurement": "IL6 response", "setting": "[2]; PAM2CSK4, epithelial cells without LP", "value": "induce an IL6 response"}, {"measurement": "IL6 response", "setting": "[2]; PAM2CSK4, healthy LP leukocyte co-cultures", "value": "induce an IL6 response"}, {"measurement": "IL-6 production", "setting": "[2]; PAM2CSK4, inflamed LPDC samples", "value": "increased IL-6 production"}, {"measurement": "IL-6 production", "setting": "[2]; PAM2CSK4, non-inflamed LPDC samples", "value": "does not appear to have an effect"}, {"measurement": "IL-9 production", "setting": "[2]; PAM2CSK4, non-inflamed and inflamed UC LPDC co-cultures, over endogenous levels", "value": "significantly induced IL-9 production"}, {"measurement": "IL-6 production", "setting": "[2]; PAM2CSK4 at 1, 2 and 4 LP mil/ml vs co-cultures with no PAM2CSK4", "value": "higher level of IL-6 production"}, {"measurement": "IL-10", "setting": "[4]; unstimulated vs Pam stimulated", "value": "no insignificant differences"}, {"measurement": "IL-8", "setting": "[4]; antigen specific stimulation (PAM2CSK4) on-chip", "value": "increased"}, {"measurement": "IL-6 protein", "setting": "[4]", "value": "no significant differences"}, {"measurement": "Avg. Z Height (z-arrow) of Caco-2 epithelial layer", "setting": "Caco-2 epithelial layer", "value": 84, "unit": "um+/−11"}, {"measurement": "Concentration of cytokine protein signaling", "setting": "[5]; PAM2CSK4, TH1 (CD) and TH9 (UC) cells on-plates", "value": "increases in the concentration of cytokine protein signaling"}, {"measurement": "IL-9", "setting": "[5]; PAM2CSK4 stimulation, TH1 populations", "value": "measurable; also recorded: did significantly increase"}, {"measurement": "IRF4", "setting": "[5]; PAM2CSK4 stimulation, TH1 populations, log 2 fold change", "value": "measurable"}, {"measurement": "IL-9, or IL-9 activation factors, log 2 fold changes", "setting": "[5]; PAM2CSK4 stimulation, TH9 populations in tissue culture plate", "value": "did not significantly increase"}, {"measurement": "Permeability of Caco-2 epithelial cell layer", "setting": "[6]", "value": "increase in permeability"}, {"measurement": "Loss of barrier function", "setting": "[6]; PAM2CSK4 treatment, overnight incubation, 4 LP mil/ml", "value": "Loss of barrier function is shown"}]}
{"compound": "Tofacitinib (citrate)", "values": [{"measurement": "IL-10", "setting": "[4]; mixture of PAM2CSK4 and Tofacitinib vs unstimulated cells", "value": "induced significant amounts"}, {"measurement": "IL-6 protein", "setting": "[4]", "value": "no significant differences"}]}
